Measured values from patent US8865698B2, “Method of treatment using substituted pyrazolo[1,5-a]pyrimidine compounds” (Array BioPharma Inc., priority 2008, dated 2014).

Target: histidine-tagged recombinant human TrkA, cytoplasmic domain (Homo sapiens (Human), UniProt P04629)
Experiment: TrkA ELISA Assay
Type: biochemical
Conditions: 2.5 nM TrkA, 500 μM ATP, 25 minutes; read-out: TrkA Elisa Enzyme IC50
Description: An enzyme-linked immunosorbant assay (ELISA) was used to assess TrkA kinase activity in the presence of inhibitors. Immulon 4HBX 384-well microtiter plates (Thermo part #8755) were coated with a 0.025 mg/mL solution of poly (Glu, Ala, Tyr; 6:3:1; Sigma P3899). Various concentrations of test compound, 2.5 nM TrkA (Invitrogen Corp., histidine-tagged recombinant human TrkA, cytoplasmic domain), and 500 μM ATP were incubated for 25 minutes at ambient temperature in the coated plates while shaking. The assay buffer consisted of 25 mM MOPS pH 7.5, 0.005% (v/v) Triton X-100 and 5 mM MgCl2. The reaction mixture was removed from the plate by washing with PBS containing 0.1% (v/v) Tween 20. The phosphorylated reaction product was detected using 0.2 μg/mL of a phosphotyrosine specific monoclonal antibody (clone PY20) conjugated to horseradish peroxidase in conjunction with the TMB Peroxidase Substrate System (KPL). After the addition of 1M phosphoric acid, the chromogenic substrate color intensity was quantitated via absorbance at 450 nm. IC50 values were calculated using either a 4 or 5-parameter logistic curve fit.

Sequence of histidine-tagged recombinant human TrkA, cytoplasmic domain (P04629 440-796): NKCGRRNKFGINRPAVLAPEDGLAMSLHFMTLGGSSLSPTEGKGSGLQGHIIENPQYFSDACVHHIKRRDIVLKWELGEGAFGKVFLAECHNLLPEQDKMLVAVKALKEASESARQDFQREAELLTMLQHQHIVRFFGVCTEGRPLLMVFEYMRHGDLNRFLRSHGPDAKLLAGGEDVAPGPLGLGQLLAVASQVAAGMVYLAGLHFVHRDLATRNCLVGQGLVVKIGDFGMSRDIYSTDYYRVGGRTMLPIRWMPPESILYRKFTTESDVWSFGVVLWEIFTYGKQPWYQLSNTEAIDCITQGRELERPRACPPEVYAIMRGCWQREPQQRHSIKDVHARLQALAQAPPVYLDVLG

Row | SMILES | IC50 [nM]
1 | COC(=O)C1(C(=O)Nc2cnn3ccc(N4CCC[C@@H]4c4cc(F)ccc4F)nc23)CC1 [Example 33, (R)-methyl 1-(5-(2-(2,5-difluorophenyl)pyrrolidin-1-yl)pyrazolo[1,5-a]pyrimidin-3-ylcarbamoyl)cyclopropanecarboxylate] | 4.7
2 | O=C(O)C1(C(=O)Nc2cnn3ccc(N4CCC[C@@H]4c4cc(F)ccc4F)nc23)CC1 [Example 34, (R)-1-(5-(2-(2,5-difluorophenyl)pyrrolidin-1-yl)pyrazolo[1,5-a]pyrimidin-3-ylcarbamoyl)cyclopropanecarboxylic acid] | 98.2
3 | O=C(Nc1cnn2ccc(N3CCC[C@@H]3c3cc(F)cc(Cl)c3)nc12)N1CC[C@H](O)C1 [Example 35, (S)—N-(5-((R)-2-(3-chloro-5-fluorophenyl)pyrrolidin-1-yl)pyrazolo[1,5-a]pyrimidin-3-yl)-3-hydroxypyrrolidine-1-carboxamide] | 20.2
4 | O=C(Nc1cnn2ccc(N3CCC[C@@H]3c3cc(F)ccc3C(F)F)nc12)N1CC[C@@H](O)C1 [Example 36, (R)—N-(5-((R)-2-(2-(difluoromethyl)-5-fluorophenyl)pyrrolidin-1-yl)pyrazolo[1,5-a]pyrimidin-3-yl)-3-hydroxypyrrolidine-1-carboxamide] | 18
5 | O=C(Nc1cnn2ccc(N3CCC[C@@H]3c3cc(F)ccc3C(F)F)nc12)N1CC[C@H](O)C1 [Example 37, (S)—N-(5-((R)-2-(2-(difluoromethyl)-5-fluorophenyl)pyrrolidin-1-yl)pyrazolo[1,5-a]pyrimidin-3-yl)-3-hydroxypyrrolidine-1-carboxamide] | 8.7
6 | O=C(Nc1cnn2ccc(N3CCC[C@@H]3c3cc(F)ccc3C(F)F)nc12)N1CCC(O)CC1 [Example 38, (R)—N-(5-(2-(2-(difluoromethyl)-5-fluorophenyl)pyrrolidin-1-yl)pyrazolo[1,5-a]pyrimidin-3-yl)-4-hydroxypiperidine-1-carboxamide] | 85.5
7 | O=C(Nc1cnn2ccc(N3CCC[C@@H]3c3cc(F)ccc3C(F)F)nc12)N1CCC[C@@H](O)C1 [Example 39, (R)—N-(5-((R)-2-(2-(difluoromethyl)-5-fluorophenyl)pyrrolidin-1-yl)pyrazolo[1,5-a]pyrimidin-3-yl)-3-hydroxypiperidine-1-carboxamide] | 25.7
8 | O=C(Nc1cnn2ccc(N3CCC[C@@H]3c3cc(F)ccc3C(F)F)nc12)N1CCC[C@H](O)C1 [Example 40, (S)—N-(5-((R)-2-(2-(difluoromethyl)-5-fluorophenyl)pyrrolidin-1-yl)pyrazolo[1,5-a]pyrimidin-3-yl)-3-hydroxypiperidine-1-carboxamide] | 30.8
9 | O=C(Nc1cnn2ccc(N3CCC[C@@H]3c3cc(F)ccc3Cl)nc12)N1CC[C@@H](O)C1 [Example 41, (R)—N-(5-((R)-2-(2-chloro-5-fluorophenyl)pyrrolidin-1-yl)pyrazolo[1,5-a]pyrimidin-3-yl)-3-hydroxypyrrolidine-1-carboxamide] | 4.1
10 | O=C(Nc1cnn2ccc(N3CCC[C@@H]3c3cc(F)ccc3Cl)nc12)N1CCC(O)CC1 [Example 42, (R)—N-(5-(2-(2-chloro-5-fluorophenyl)pyrrolidin-1-yl)pyrazolo[1,5-a]pyrimidin-3-yl)-4-hydroxypiperidine-1-carboxamide] | 28.3
11 | O=C(Nc1cnn2ccc(N3CCC[C@@H]3c3cc(F)ccc3Cl)nc12)N1CCC[C@@H](O)C1 [Example 43, (R)—N-(5-((R)-2-(2-chloro-5-fluorophenyl)pyrrolidin-1-yl)pyrazolo[1,5-a]pyrimidin-3-yl)-3-hydroxypiperidine-1-carboxamide] | 11.7
12 | O=C(Nc1cnn2ccc(N3CCC[C@@H]3c3cc(F)ccc3Cl)nc12)N1CCC[C@H](O)C1 [Example 44, (S)—N-(5-((R)-2-(2-chloro-5-fluorophenyl)pyrrolidin-1-yl)pyrazolo[1,5-a]pyrimidin-3-yl)-3-hydroxypiperidine-1-carboxamide] | 13.4
